Results published in patent publication US4218456A, “1-(4-Fluorophenyl)-4-(1,2,3,6-tetrahydro-4-phenoxy-1-pyridinyl)-butanones” (Warner-Lambert Company, priority 1978, dated 1980).

Test system: dopamine receptor binding sites
Experiment: 3H-Haloperidol Receptor Binding Assay (HRBA)
Conditions: at 10^-8 mol/L concentration in vitro
Source text: As with other known antipsychotics, the compounds of formula I readily displace ^3 H-haloperidol from dopamine receptor binding sites in the ^3 H-Haloperidol Receptor Binding Assay (HRBA). […] The HRBA screen is described by I. Creese, D. R. Burt and S. H. Snyder, Science, 192, 481 (1976) and P. Seeman, T. Lee, M. Chan-Wong and K. Wong, Nature, 261, 717 (1976).

inhibition of 3H-haloperidol: 87%
SMILES: O=C(CCCN1CC=C(Oc2ccc(F)cc2)CC1)c1ccc(F)cc1 [Example 9, 4-[4-(4-Fluorophenoxy)-1,2,3,6-tetrahydro-1-pyridinyl]-1-(4-fluorophenyl)-1-butanone(Z)-2-Butenedioate]
